US7482489B2, “Enantiomerically pure (R)-albuterol dibenzoyltartrate and protected analogs thereof” (Teva Pharmaceutical Fine Chemicals S.r.l., priority 2004, dated 2009)
Where a name gives a salt, the structure may show the parent alone. Each block holds one molecule with its values, some of them ahead of it.

Experiments:
Type in all cases: physicochemical
[1] = Stability comparison of sample at 40° C. and 75% RH (HPLC area %)
Protocol: Yields were determined by mass. Chemical purity was determined by HPLC. The HPLC analysis was conducted using a column POLARIS C18-A 250 mm×4.6 mm×[…] (cat n.2002-250×046) and a mobile phase. The mobile phase comprised a phosphate buffer at pH 3.00 and acetonitrile in a gradient. The eluent flow was 1.0 ml/min. The detector was set to a wavelength of 230 nm, using an HPLC Hewlett Packard VWD detector HP 1100, as a detector.
Using the products of the previous examples, a stability study at 40° C. and 75% RH was carried out.

[2] = Stability of levalbuterol hydrochloride at 70° C. (HPLC area %, appearance)
Protocol: [table] […] At lower pH values, greater levalbuterol hydrochloride degradation occurred. […] Yields were determined by mass. Chemical purity was determined by HPLC. […] The mobile phase comprised a phosphate buffer at pH 3.00 and acetonitrile in a gradient. The eluent flow was 1.0 ml/min. The detector was set to a wavelength of 230 nm, using an HPLC Hewlett Packard VWD detector HP 1100, as a detector.

[3] = Stability of levalbuterol hydrochloride at different storage temperatures (HPLC area %)
Protocol: At lower pH values, greater levalbuterol hydrochloride degradation occurred. […] [table] […] The percentage LVB, Compound B, or Compound A is relative to the total amount of sample at time=T. Yields were determined by mass. Chemical purity was determined by HPLC. […] The mobile phase comprised a phosphate buffer at pH 3.00 and acetonitrile in a gradient. The eluent flow was 1.0 ml/min. The detector was set to a wavelength of 230 nm, using an HPLC Hewlett Packard VWD detector HP 1100, as a detector.

[4] = 3 months at 40° C. and 75% RH, Hydrochloride
[5] = 6 months at 40° C. and 75% RH, Hydrochloride
[6] = T = 0, 40° C. and 75% RH study, Hydrochloride
[7] = 1 week at 70° C., Hydrochloride
[8] = T = 0, before storage at 70° C., Hydrochloride

Structure (SMILES): CC(C)(C)NC[C@H](O)c1ccc(O)c(CO)c1 [Example 12, Levalbuterol Hydrochloride]
Comp. A [1, 4]: 0.02%
Comp. B [1, 4]: 0.06%
LVB [1, 4]: 99.85%
Total Unknown Impurities [1, 4]: 0.07%
Total Unknown Impurities ([1]; 6 months at 40° C. and 75% RH): 0.09%
Comp. A [1, 5]: 0.02%
Comp. B [1, 5]: 0.06%
LVB [1, 5]: 99.83%
Comp. A [1, 6]: 0.02%
Comp. B [1, 6]: 0.01%
LVB [1, 6]: 99.91%
Total Unknown Impurities [1, 6]: 0.06%

Structure (SMILES): CC(C)(C)NC[C@H](O)c1ccc(O)c(CO)c1 [Example 21, Levalbuterol Hydrochloride]
Compound A [2, 7]: 0.72%
Compound B [2, 7]: 0.26%
Compound C [2, 7]: 0.18%
LVB (levalbuterol hydrochloride) [2, 7]: 97.1%
Sample (appearance) [2, 7]: Pale yellow
Total Unknown Impurities [2, 7]: 1.21%
Compound C ([2]; T = 0, before storage at 70° C.): 0.15%
Compound A [2, 8]: 0.24%
Compound B [2, 8]: 0.18%
LVB (levalbuterol hydrochloride) [2, 8]: 99.4%
Sample (appearance) [2, 8]: White solid^c

Structure (SMILES): CC(C)(C)NC[C@H](O)c1ccc(O)c(CO)c1 [levalbuterol hydrochloride, (R)-α^1-[[(1,1-dimethylethyl)amino]methyl]-4-hydroxy-1,3-benzenedimethanol hydrochloride]
Sample (appearance) [2, 8]: White solid
Compound A ([3]; 1 month, 25° C.): 0.03%
Compound B ([3]; 1 month, 25° C.): 0.02%
LVB ([3]; 1 month, 25° C.): 99.87%
Total Unknown Impurities ([3]; 1 month, 25° C.): 0.08%
Compound A ([3]; 2 months, 25° C.): 0.04%
Compound B ([3]; 2 months, 25° C.): 0.02%
LVB ([3]; 2 months, 25° C.): 99.82%
Total Unknown Impurities ([3]; 2 months, 25° C.): 0.12%
Compound A ([3]; 20 hrs, 40-45° C.): 0.11%
Compound B ([3]; 20 hrs, 40-45° C.): 0.30%
LVB ([3]; 20 hrs, 40-45° C.): 99.30%
Total Unknown Impurities ([3]; 20 hrs, 40-45° C.): 0.29%
Compound A ([3]; 20 hrs, 55-60° C.): 0.23%
Compound B ([3]; 20 hrs, 55-60° C.): 0.45%
LVB ([3]; 20 hrs, 55-60° C.): 98.17%
Total Unknown Impurities ([3]; 20 hrs, 55-60° C.): 1.15%
Compound A ([3]; 32 hrs, 55-60° C.): 0.26%
Compound B ([3]; 32 hrs, 55-60° C.): 0.45%
LVB ([3]; 32 hrs, 55-60° C.): 97.9%
Total Unknown Impurities ([3]; 32 hrs, 55-60° C.): 1.39%
Compound A ([3]; 10 days, 25° C.): 0.02%
Compound B ([3]; 10 days, 25° C.): 0.01%
LVB ([3]; 10 days, 25° C.): 99.88%
Total Unknown Impurities ([3]; 10 days, 25° C.): 0.09%
Compound A ([3]; T = 0, 20° C., MeOH 6700 ppm): 0.028%
Compound B ([3]; T = 0, 20° C., MeOH 6700 ppm): 0.035%
LVB ([3]; T = 0, 20° C., MeOH 6700 ppm): 99.84%
Total Unknown Impurities ([3]; T = 0, 20° C., MeOH 6700 ppm): 0.097%
Compound A ([3]; T = 0, 25° C., MeOH 2090 ppm): 0.02%
Compound B ([3]; T = 0, 25° C., MeOH 2090 ppm): 0.01%
LVB ([3]; T = 0, 25° C., MeOH 2090 ppm): 99.90%
Total Unknown Impurities ([3]; T = 0, 25° C., MeOH 2090 ppm): 0.07%

The next lines start with the values.

Comp. A [1, 4]: 0.03%
Comp. B [1, 4]: 0.07%
LVB [1, 4]: 99.85%
Total Unknown Impurities [1, 4]: 0.05%
Total Unknown Impurities ([1]; 6 months at 40° C. and 75% RH): 0.09%
Comp. A [1, 5]: 0.03%
Comp. B [1, 5]: 0.07%
LVB [1, 5]: 98.81%
Comp. A [1, 6]: 0.01%
Comp. B [1, 6]: 0.03%
LVB [1, 6]: 99.87%
Total Unknown Impurities [1, 6]: 0.09%
Structure (SMILES): CC(C)(C)NC[C@H](O)c1ccc(O)c(CO)c1 [Example 8, Levalbuterol Hydrochloride]

Comp. C ([1]; 3 months at 40° C. and 75% RH): 0.04%
Comp. A [1, 4]: 0.06%
Comp. B [1, 4]: 0.09%
LVB [1, 4]: 99.75%
Total Unknown Impurities [1, 4]: 0.08%
Comp. C ([1]; 6 months at 40° C. and 75% RH): 0.05%
Comp. A [1, 5]: 0.07%
Comp. B [1, 5]: 0.13%
LVB [1, 5]: 99.72%
Comp. A [1, 6]: 0.01%
Comp. B [1, 6]: 0.02%
LVB [1, 6]: 99.86%
Total Unknown Impurities [1, 6]: 0.11%
Structure (SMILES): CC(C)(C)NC[C@H](O)c1ccc(O)c(CO)c1 [Example 16, Levalbuterol Hydrochloride]
